# Test results taken from PMC8413292, “Small-molecule polymerase inhibitor protects non-human primates from measles and reduces shedding” (Nature Communications, 2021).
# Values joined by “and” are separate entries in the source; they are usually repeats but may differ in a detail not shown here. Equal values may be shown once. Read-outs that look alike come from different tables or passages of the source.
# How the values were obtained:
# [1] = Single-dose oral pharmacokinetic study in squirrel monkeys (LC/MS/MS serum concentrations); type: in vivo, squirrel monkeys (Saimiri sciureus); details: for tmax: 50 mg/kg oral (intragastric) single dose
# Protocol: All animal experiments were carried out in compliance with the regulations of German animal protection laws and authorized by the Regierungspräsidium Darmstadt, Germany (Dezernat V54 – Veterinärwesen und Verbraucherschutz, Hilpertstrasse 31, 64295 Darmstadt). Adult male and female squirrel monkeys (Saimiri sciureus) were obtained from BioPRIM, 31450 Baziege, or CNRS 0846 Primatologie, 13790 Rousset, France. Each experimental group was housed in a separate room, and animals of the same sex were caged together within the respective groups. For the single-dose pharmacokinetic experiment, animals were anesthetized, and the drug was given through a stomach tube at a concentration of 50 mg/kg bodyweight. Blood samples were collected after 15, 30, and 60 min, and 2, 3, 6, and 24 h. For efficacy assessment, groups of 6 animals were left untreated or treated with 50 mg/kg of ERDRP-0519 twice daily for two weeks, starting either 12 h before or 3 or 7 days after intranasal infection with 10^6 TCID50 of MV/FrankfurtMain.DEU/17.11. Clinical signs, rectal temperature, and weight were recorded daily, and throat swabs and blood samples were collected before infection and twice weekly thereafter. On day 21 post-infection, the animals were euthanized, necropsied, and samples were collected for histological analysis.
# Drug concentrations were determined using an internal standard and a reversed phase isocratic HPLC method with positive ion electrospray ionization (ESI) mass spectrometry detection (LC/MS/MS) on an AB-SCIEX API 5500 MS/MS instrument (5 μl injection volume). Pharmacokinetic parameters were estimated using WinNonlin 5.3 (Pharsight).
# [2] = tested on: MeV/NewJersey.USA/94/1 (genotype D6); test: PK and PD recapitulation ex vivo in MeV-infected human PBMCs, progeny virus titer (TCID50); type: cell-based, Measles virus in human PBMCs; details: for Virus titers: hPBMCs, individual repeats; for Mean, Transform of Virus Titer: n = 4
# Protocol: Human peripheral blood mononuclear cells (hPBMCs) were infected (MOI = 0.1 TCID50 units per cell) in a 24-well plate format with MeV/NewJersey.USA/94/1 (genotype D6) in the presence of ERDRP-0519 or DMSO (0.1%). […] Cells were collected 48 h after infection and virus was subsequently harvested after two freeze thaw cycles. Released virus titers were then determined by limited dilution method (TCID50) on Vero/hSLAM cells. Four biological repeats were used for each ex vivo PK recapitulation and three biological repeats were used for DMSO-treated hPBMCs.
# PK and PD recapitulation in human blood mononuclear cells
# To test whether viral replication in […]
# circumstances, we performed an in vitro recapitulation experiment. For this, we infected human PBMCs in a 24-well plate format with MeV/NewJersey.USA/94/1 (genotype D6) at a multiplicity of infection of 0.1 TCID 50 units per cell. To mimic the ERDRP-0519 serum concentration profile in vitro , we adjusted the drug concentrations in our PBMC cultures multiple times during the incubation period as shown by the colored areas in Fig. 1c (recapitulating a once per day treatment regimen, q.d.) and Fig. 1d (recapitulating a twice daily treatment regimen, b.i.d.) and summarized in Supplementary Table 3. The concentration changes were applied for a total of 48 h to the infected PBMC cultures (a total of two cycles of the q.d. regimen and four cycles of the b.i.d. regimen, assuming no drug accumulation during repeated treatment). As controls, infected PBMCs were incubated in the presence of vehicle only (0.1 % DMSO) or with a constant concentration of 1.5 µM of ERDRP-0519 over the whole period of 48 h post infection. Cells were collected 48 hours after infection and virus was subsequently harvested after two freeze thaw cycles. Released virus titers were then determined by limited dilution method (TCID 50) on Vero/hSLAM cells (Fig. 1e). Four biological repeats were used for each ex vivo PK recapitulation and three biological repeats were used for DMSO-treated hPBMCs.
# MeV = details: depending on the MeV-strain; read-out: in vitro EC50; cited from earlier work
# [3] = both sexes, monkey, serum, squirrel monkeys, 50 mg/kg oral single dose, n = 3
smiles,measurement,setting,value
Cn1nc(C(F)(F)F)cc1C(=O)Nc1ccc(S(=O)(=O)N2CCCC[C@H]2CCN2CCOCC2)cc1 [ERDRP-0519],concentration at 2 h,"[1]; 50 mg/kg oral, 0.25 h post-application, individual animals, read-out: ERDRP-0519 serum conc.",672.2 nM and 1545 nM and 3833 nM
same,concentration at 2 h,"[1]; 50 mg/kg oral, 0.5 h post-application, individual animals, read-out: ERDRP-0519 serum conc.",691.1 nM and 917.7 nM and 3493 nM
same,concentration at 2 h,"[1]; 50 mg/kg oral, 1 h post-application, individual animals, read-out: ERDRP-0519 serum conc.",1158 nM and 2002 nM and 3607 nM
same,concentration at 2 h,"[1]; 50 mg/kg oral, 2 h post-application, individual animals, read-out: ERDRP-0519 serum conc.",3078 nM and 3040 nM
same,concentration at 2 h,"[1]; 50 mg/kg oral, 3 h post-application, individual animals, read-out: ERDRP-0519 serum conc.",2889 nM and 2172 nM
same,concentration at 2 h,"[1]; 50 mg/kg oral, 6 h post-application, individual animals, read-out: ERDRP-0519 serum conc.",1259.5 nM and 991.4 nM
same,concentration at 2 h,"[1]; 50 mg/kg oral, 24 h post-application, individual animals, read-out: ERDRP-0519 serum conc.",39.09 nM and 98 nM and 77.99 nM
same,concentration at 0 h,"[1]; both sexes, monkey, serum, oral, 50 mg/kg, 50 mg/kg oral, 0 h post-application, individual animals, read-out: ERDRP-0519 serum conc.",0 nM
same,concentration at 2 h,"[1]; both sexes, monkey, serum, oral, 50 mg/kg, 50 mg/kg oral, 2 h post-application, individual animals, read-out: ERDRP-0519 serum conc.",2490 nM
same,concentration at 3 h,"[1]; both sexes, monkey, serum, oral, 50 mg/kg, 50 mg/kg oral, 3 h post-application, individual animals, read-out: ERDRP-0519 serum conc.",2510 nM
same,concentration at 6 h,"[1]; both sexes, monkey, serum, oral, 50 mg/kg, 50 mg/kg oral, 6 h post-application, individual animals, read-out: ERDRP-0519 serum conc.",1340 nM
same,tmax,"[1]; both sexes, monkey, serum, po, 50 mg/kg, squirrel monkeys, n = 3, read-out: tmax",1.8 h
same,AUC(0-inf),[1]; [3],24.4 µM·h
same,Cmax,[1]; [3],3270 nM
same,half-life,"[1]; both sexes, monkey, serum, squirrel monkeys, 50 mg/kg oral single dose, n = 3, read-out: t1/2 terminal elimination half-life (converted)",4.2 h
same,tmax,"[1]; squirrel monkeys, n = 3, 50 mg/kg",~ 2 h
same,reduction in progeny virus titer,"[2]; continuous exposure of MeV-infected hPBMCs to 1.5 µM, 48 h",greater than three orders of magnitude reduction
same,Virus titers,"[2]; 48 h, b.i.d. 50 mg/kg simulated profile",1.80E+02 TCID50/10^6 PBMCs and 3.21E+02 TCID50/10^6 PBMCs and 4.27E+02 TCID50/10^6 PBMCs and 7.60E+01 TCID50/10^6 PBMCs
same,Virus titers,"[2]; 48 h, constant 1.5 μM",7.60E+01 TCID50/10^6 PBMCs and 5.70E+01 TCID50/10^6 PBMCs and 4.27E+01 TCID50/10^6 PBMCs
same,Virus titers,"[2]; 48 h, q.d. 50 mg/kg simulated profile",1.80E+03 TCID50/10^6 PBMCs and 2.40E+03 TCID50/10^6 PBMCs and 3.21E+03 TCID50/10^6 PBMCs and 1.35E+03 TCID50/10^6 PBMCs
same,"Mean, Transform of Virus Titer",[2]; once daily recapitulation,3.318
same,"Mean Diff., Transform of Virus Titer",[2]; once daily vs. trough,1.531
same,"Mean Diff., Transform of Virus Titer",[2]; once daily vs. twice daily,0.9998
same,"Mean Diff., Transform of Virus Titer",[2]; once daily vs. vehicle,-1.854
same,progeny MeV titers versus untreated controls,"[2]; q.d. and b.i.d. regimen recapitulated ex vivo in hPBMCs, 48 h",significantly (p < 0.0001) lower than in untreated controls
same,"Mean, Transform of Virus Titer",[2]; trough (constant 1.5 µM),1.787
same,"Mean Diff., Transform of Virus Titer",[2]; trough vs. vehicle,-3.385
same,"Mean, Transform of Virus Titer",[2]; twice daily recapitulation,2.318
same,"Mean Diff., Transform of Virus Titer",[2]; twice daily vs. trough,0.5313
same,"Mean Diff., Transform of Virus Titer",[2]; twice daily vs. vehicle,-2.853
same,EC50,MeV,0.07 to 0.3 µM
